In patent US20080262266A1, “Method for the Production of Xylyendiamine” (BASF SE, priority 2005, published 2008):
Where two headings read alike, the source gives them in different places.

How the values were obtained:
[1] = 70° C.; cited from earlier work
[2] = solubility of isophthalonitrile (IPN) in organic solvents; format: physicochemical; conditions: 60° C.

N#Cc1cccc(C#N)c1 [IPN, 1,3-dicyanobenzene]
solubility of IPN in MXDA [1]: about 20 % by weight | solubility of IPN in MXDA ([2]; MXDA): 15 % by weight | solubility of IPN in THF ([2]; THF): ~19 % by weight | solubility of IPN in methanol ([2]; methanol): 18 % by weight
